In article PMC3818834 (2013):

Key:
[1] = test system: CA-70 (DNA, aptamer) GGTCAGCACGCTCCGGACTTGGGTGGGTGGGTTGGGGTACGGTGCGTAATGTGTCGCTGAGCCTGCCAAC; assay: fluorescence titration; conditions: 138 mM NaCl, 2.7 mM KCl, 2.5 mM MgCl2, 10 mM PBS pH 7.4, 0.05% TWEEN 20, 25 °C
[2] = test system: CA-40 (DNA, aptamer) ACGCTCCGGACTTGGGTGGGTGGGTTGGGGTACGGTGCGT; assay: fluorescence titration; conditions: 138 mM NaCl, 2.7 mM KCl, 2.5 mM MgCl2; 10 mM PBS pH 7.4, 0.05% TWEEN 20, 25 °C; compound 1 µM; 1:1 assumed
[3] = test system: CA-20 (DNA, aptamer) TGGGTGGGTGGGTTGGGGTA; assay: fluorescence titration; conditions: 138 mM NaCl, 2.7 mM KCl, 2.5 mM MgCl2; 10 mM PBS pH 7.4, 0.05% TWEEN 20, 25 °C; compound 1 µM; nucleic acid up to 10 µM
[4] = test system: CA-19 (DNA, aptamer) GGGTGGGTGGGTTGGGGTA; assay: fluorescence titration; conditions: 138 mM NaCl, 2.7 mM KCl, 2.5 mM MgCl2; 10 mM PBS pH 7.4, 0.05% TWEEN 20, 25 °C; compound 1 µM; nucleic acid up to 10 µM
[5] = test system: CA-18A (DNA, aptamer) TGGGTGGGTGGGTTGGGG; assay: fluorescence titration; conditions: 138 mM NaCl, 2.7 mM KCl, 2.5 mM MgCl2, 10 mM PBS pH 7.4, 0.05% TWEEN 20, 25 °C, compound 1 µM
[6] = test system: CA-18B (DNA, aptamer) GGGTGGGTGGGTTGGGGT; assay: fluorescence titration; conditions: 138 mM NaCl, 2.7 mM KCl, 2.5 mM MgCl2; 10 mM PBS pH 7.4, 0.05% TWEEN 20, 25 °C; compound 1 µM; nucleic acid up to 10 µM
[7] = test system: CA-17 (DNA, aptamer) GGGTGGGTGGGTTGGGG; assay: fluorescence titration; conditions: 138 mM NaCl, 2.7 mM KCl, 2.5 mM MgCl2, 10 mM PBS pH 7.4, 0.05% TWEEN 20, 25 °C, compound 1 µM
[8] = test system: CA-16 (DNA, aptamer) GGGTGGGTGGGTTGGG; assay: fluorescence titration; conditions: 138 mM NaCl, 2.7 mM KCl, 2.5 mM MgCl2, 10 mM PBS pH 7.4, 0.05% TWEEN 20, 25 °C, compound 1 µM
[9] = test system: CA-16 (DNA, aptamer) GGGTGGGTGGGTTGGG; assay: CD melting at 265 nm; conditions: 138 mM NaCl, 2.7 mM KCl, 2.5 mM MgCl2; 10 mM PBS pH 7.4; compound 10 µM, nucleic acid 10 µM; Tm without compound 73 °C
[10] = test system: CA-23A (DNA, aptamer) ACTTGGGTGGGTGGGTTGGGGTA; assay: fluorescence titration; conditions: 138 mM NaCl, 2.7 mM KCl, 2.5 mM MgCl2; 10 mM PBS pH 7.4, 0.05% TWEEN 20, 25 °C; compound 1 µM; 1:1 assumed
[11] = test system: CA-23B (DNA, aptamer) TTTTGGGTGGGTGGGTTGGGGTA; assay: fluorescence titration; conditions: 138 mM NaCl, 2.7 mM KCl, 2.5 mM MgCl2; 10 mM PBS pH 7.4, 0.05% TWEEN 20, 25 °C; compound 1 µM; nucleic acid up to 10 µM
[12] = test system: CA-19 (DNA, aptamer) GGGTGGGTGGGTTGGGGTA; assay: fluorescence polarization; conditions: 138 mM NaCl, 2.7 mM KCl, 2.5 mM MgCl2; 10 mM PBS pH 7.4, 0.05% TWEEN 20, 25 °C; compound 1 µM; nucleic acid up to 10 µM
[13] = test system: CA-16 (DNA, aptamer) GGGTGGGTGGGTTGGG; assay: fluorescence polarization; conditions: 138 mM NaCl, 2.7 mM KCl, 2.5 mM MgCl2; 10 mM PBS pH 7.4, 0.05% TWEEN 20, 25 °C; compound 1 µM

Compound | Kd ([1]; compound 1 µM, 1:1 assumed) | Kd [2] | Kd [3] | Kd [4] | Kd [6] | Kd ([1]; nucleic acid up to 10 µM) | also measured
CC[C@@]1(O)C(=O)OCc2c1cc1n(c2=O)Cc2c-1nc1ccccc1c2CN1CCC(N)CC1 | 3.6 ± 0.2 µM | 3.0 ± 0.2 µM | > 10 µM | > 10 µM | > 10 µM | – | Kd ([5]; 1:1 assumed): 3.4 ± 0.3 µM; Kd ([7]; 1:1 assumed): 8.9 ± 1.0 µM; Kd ([8]; 1:1 assumed): 2.7 ± 0.3 µM
CC[C@@]1(O)C(=O)OCc2c1cc1n(c2=O)Cc2c-1nc1ccccc1c2CN1CCC(NC(=O)COCC(=O)NCCOCCOCCOCCOCCOCCOCCOCCOCCOCCOCCOCCN)CC1 | 1.8 ± 0.3 µM | 3.0 ± 0.4 µM | > 10 µM | > 10 µM | > 10 µM | – | binding [9]: yes; Kd [10]: 2.1 ± 0.9 µM; Kd [11]: > 10 µM; Kd ([5]; 1:1 assumed): 6.0 ± 0.8 µM; Kd ([7]; 1:1 assumed): 8.1 ± 0.9 µM; Kd [8]: 1.8 ± 0.3 µM; binding [12]: no; binding [13]: yes
CC[C@@]1(O)C(=O)OCc2c1cc1n(c2=O)Cc2cc3ccccc3nc2-1 | 4.6 ± 0.3 µM | 5.6 ± 0.5 µM | > 10 µM | > 10 µM | > 10 µM | – | Kd ([5]; nucleic acid up to 10 µM): > 10 µM; Kd ([7]; nucleic acid up to 10 µM): > 10 µM; Kd ([8]; 1:1 assumed): 4.2 ± 0.4 µM
Cc1cc2nc3c(=O)[nH]c(=O)nc-3n(C[C@H](O)[C@H](O)[C@H](O)COP(=O)(O)O)c2cc1C | – | – | – | – | – | – | Kd [1]: 8.5 µM
O=C(O)Cc1ccc2[nH]c3ccccc3c(=O)c2c1 | – | – | – | – | – | > 10 µM | –
O=C1OC2(c3ccc(O)cc3Oc3cc(O)ccc32)c2ccccc21 | – | – | – | – | – | > 10 µM | –
O=c1c2ccccc2[nH]c2ccccc12 | – | – | – | – | – | > 10 µM | –
